Experimental data as given in BindingDB's records for patent US10508109 (ONCOTHERAPY SCIENCE, INC., 2019).

Molecular target: Histone-lysine N-methyltransferase SUV39H2 (Human, UniProt Q9H5I1)
Experiment: Suv 39H2 Assay
Procedure: Assay buffer (4 μL) was added into all the wells, including test compound and control wells (except for Sinefungin control wells), using the Multidrop Combi. The plate was centrifuged at 1000 rpm for 1 min. […] SUV39H2 (8 μL, final conc: optimized for each lot of the enzyme based on specific activity) was added by using the Multidrop Combi. The assay plate was centrifuged at 1000 rpm for 1 min. Assay buffer was used as background control, and incubated at room temperature for 3 hours. The reaction was stopped with 20 μL of 2.5 mg/mL Streptavidin SPA beads (final conc. 50 μg/well) in buffer using the Multidrop Combi and centrifuged for 1 min. The plate was loaded into the Trilux-Microbeta counter and a delayed read of 10 hours was made. The radioactive signal was measured at 1 min/well. Sinefungin and the internal standard compound were used as tool compounds to determine assay performance.

Chain of Histone-lysine N-methyltransferase SUV39H2 (Q9H5I1 whole entry): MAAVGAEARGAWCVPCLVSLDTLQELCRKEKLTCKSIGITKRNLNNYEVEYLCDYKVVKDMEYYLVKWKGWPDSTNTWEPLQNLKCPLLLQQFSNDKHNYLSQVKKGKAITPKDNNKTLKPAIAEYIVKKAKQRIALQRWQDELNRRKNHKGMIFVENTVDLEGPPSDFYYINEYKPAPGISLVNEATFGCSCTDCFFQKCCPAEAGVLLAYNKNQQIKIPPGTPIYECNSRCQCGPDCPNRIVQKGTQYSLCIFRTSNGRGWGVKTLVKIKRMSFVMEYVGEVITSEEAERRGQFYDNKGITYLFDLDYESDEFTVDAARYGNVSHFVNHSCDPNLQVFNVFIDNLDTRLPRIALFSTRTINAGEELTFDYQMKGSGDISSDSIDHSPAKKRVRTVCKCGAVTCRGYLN

Point of comparison: `COc1cc(CO)c(-c2cn3ccc(N4CCN(P(=O)(CO)OC)CC4)cc3n2)cc1Cl` (stereo unspecified) [US10508109, Example 203], IC50 1.77 nM. Against it:
- COc1cc(CO)c(-c2cn3ccc(N4CCN(CCNC(=O)OC(C)(C)C)CC4)cc3n2)cc1Cl [US10508109, Example 28] — 12-fold higher, 21 nM
- COc1cc(CO)c(-c2cn3ccc(N(C)CCNC(=O)OC(C)(C)C)cc3n2)cc1Cl [US10508109, Example 48] — 7-fold higher, 12.4 nM
- COc1cc(CO)c(-c2cn3ccc(N4CCC(NC(C)=O)C4)cc3n2)cc1Cl (stereo unspecified) [US10508109, Example 37] — 2.5-fold higher, 4.35 nM
- COc1cc(CO)c(-c2cn3ccc(N4CCC(NC(N)=O)C4)cc3n2)cc1Cl (stereo unspecified) [US10508109, Example 38] — 2.3-fold higher, 4.11 nM
- COc1cc(CO)c(-c2cn3ccc(N4CCC(N)CC4)nc3n2)cc1Cl [US10508109, Example 42] — 45-fold higher, 79 nM
- COc1cc(CO)c(-c2cn3ccc(N4CCN(CCO)CC4)cc3n2)cc1Cl [US10508109, Example 43] — 4.8-fold higher, 8.54 nM
- COc1cc(CO)c(-c2cn3ccc(C4=CCN(CCN5CCCCC5)CC4)cc3n2)cc1Cl [US10508109, Example 147] — 17-fold higher, 29.5 nM
- COc1cc(CO)c(-c2cn3ccc(N4CCN(S(=O)(=O)Cc5ccccc5)CC4)cc3n2)cc1Cl [US10508109, Example 179] — 18-fold higher, 32.2 nM
- COc1cc(CO)c(-c2cn3ccc(N4CC[C@H](N)C4)cc3n2)cc1Cl [US10508109, Example 47] — 4.7-fold higher, 8.29 nM
- COc1cc(CO)c(-c2cn3ccc(OC4CCN(S(=O)(=O)c5cccs5)CC4)cc3n2)cc1Cl [US10508109, Example 280] — 40-fold higher, 71.1 nM
- COc1cc(CO)c(-c2cn3ccc(N4CCC(NC(=O)CCNC(=O)OC(C)(C)C)C4)nc3n2)cc1Br (stereo unspecified) [US10508109, Example 65] — 7.9-fold higher, 14 nM
- COc1cc(CO)c(-c2cn3ccc(N4CCC(N5CCCS5(=O)=O)CC4)cc3n2)cc1Cl [US10508109, Example 182] — 3.9-fold higher, 6.97 nM
- COc1cc(CO)c(-c2cn3ccc(N4CCN(S(=O)(=O)C(C)C)CC4)cc3n2)cc1Cl [US10508109, Example 178] — 8.1-fold higher, 14.3 nM
- COc1cc(CO)c(-c2cn3ccc(N4CCC(NS(=O)(=O)N(C)C)CC4)cc3n2)cc1Cl [US10508109, Example 181] — 7.9-fold higher, 13.9 nM
- CCCS(=O)(=O)NC1CCN(c2ccn3cc(-c4cc(Cl)c(OC)cc4CO)nc3c2)CC1 [US10508109, Example 174] — 5.9-fold higher, 10.4 nM
